Data from ChEMBL document CHEMBL1201862, “PubChem BioAssay data set” (2004).
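Following 48 hours of exposure in 96-well plates, responses at five concentrations were used to interpolate endpoints linearly. GI50: concentration for 50% inhibition of growth.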 Active and inactive are the calls of the source. Cut-off read from the data, not from the text of the source: active = GI50 up to about 1.1 µM and inactive = higher.

Assays:
Assay in all cases: NCI-60 cell line screen, 48 h
786-0 = system: 786-0
COLO 205 = system: COLO 205
HCT-15 = system: HCT-15
LOX IMVI = system: LOX IMVI
LXFL 529 = system: LXFL 529
M14 = system: M14
M19-MEL = system: M19-MEL
MOLT-4 = system: MOLT-4
NCI-H226 = system: NCI-H226
NCI-H460 = system: NCI-H460
SF-268 = system: SF-268
SK-MEL-2 = system: SK-MEL-2
SN12C = system: SN12C
SW-620 = system: SW-620
UACC-257 = system: UACC-257
UO-31 = system: UO-31

| Structure (SMILES) | GI50 (786-0) | GI50 (COLO 205) | GI50 (HCT-15) | GI50 (LOX IMVI) | GI50 (LXFL 529) | GI50 (M14) | GI50 (M19-MEL) | GI50 (MOLT-4) | GI50 (NCI-H226) | GI50 (NCI-H460) | GI50 (SF-268) | GI50 (SK-MEL-2) | GI50 (SN12C) | GI50 (SW-620) | GI50 (UACC-257) | GI50 (UO-31) |
| --- | --- | --- | --- | --- | --- | --- | --- | --- | --- | --- | --- | --- | --- | --- | --- | --- |
| Cn1cc(-c2ccc3c4ccccc4n(C)c3c2)c2ccccc21 | > 100 µM (inactive) | > 100 µM (inactive) | 36.6 µM | > 100 µM (inactive) | > 100 µM (inactive) | > 100 µM (inactive) | > 100 µM (inactive) | > 100 µM (inactive) | > 100 µM (inactive) | > 100 µM (inactive) | > 100 µM (inactive) | > 100 µM (inactive) | > 100 µM (inactive) | > 100 µM (inactive) | > 100 µM (inactive) | > 100 µM (inactive) |
| CCCCCCCCCCOC(=O)c1cc[n+](C)cc1 | 17.6 µM (inactive) | 16.7 µM (inactive) | 15.9 µM | 17.6 µM (inactive) | 16.3 µM (inactive) | 18 µM (inactive) | 17.8 µM (inactive) | 18.2 µM (inactive) | 18.1 µM (inactive) | 21 µM (inactive) | 20 µM (inactive) | 17.3 µM (inactive) | 16.9 µM (inactive) | 19.1 µM (inactive) | 19.8 µM (inactive) | 16.5 µM (inactive) |
| Cc1c[n+]2c3ccccc3c3ccccc3c2s1.[O-][Cl+3]([O-])([O-])[O-] | 3.37 µM (inactive) | 7.89 µM (inactive) | > 100 µM | 15.2 µM (inactive) | 3.16 µM (inactive) | 17.4 µM (inactive) | 4.2 µM (inactive) | 2.03 µM (inactive) | 0.536 µM (active) | 5.94 µM (inactive) | 0.697 µM (active) | 12.4 µM (inactive) | 2.61 µM (inactive) | 5.4 µM (inactive) | 4.26 µM (inactive) | 3.25 µM (inactive) |
| Cc1cccc(NC(=O)/C=C/c2ccc(N(CCC#N)CCC#N)cc2C)c1 | > 100 µM (inactive) | > 100 µM (inactive) | 29 µM | 43.7 µM (inactive) | 23.4 µM (inactive) | > 100 µM (inactive) | > 100 µM (inactive) | > 100 µM (inactive) | > 100 µM (inactive) | > 100 µM (inactive) | 81.5 µM (inactive) | > 100 µM (inactive) | > 100 µM (inactive) | > 100 µM (inactive) | > 100 µM (inactive) | 24.5 µM (inactive) |
